In publication PMC4839570, “Novel Anthra[1,2-c][1,2,5]Thiadiazole-6,11-Diones as Promising Anticancer Lead Compounds: Biological Evaluation, Characterization & Molecular Targets Determination” (PLoS ONE, 2016):
Like-named read-outs stand apart in the source and are kept apart here.

Columns and labels:
HL-60(TB) = assay: NCI-60 cytotoxicity screen; format: cell-based
A549/ATCC = assay: NCI-60 cytotoxicity screen; format: cell-based
HOP-92 = assay: NCI-60 cytotoxicity screen; format: cell-based
NCI-H460 = assay: NCI-60 cytotoxicity screen; format: cell-based
NCI-H522 [1] = assay: NCI-60 cytotoxicity screen; format: cell-based
HCT-116 [2] = assay: NCI-60 cytotoxicity screen; format: cell-based
SF-539 [3] = assay: NCI-60 cytotoxicity screen; format: cell-based
SNB-19 = assay: NCI-60 cytotoxicity screen; format: cell-based
MDA-MB-435 = assay: NCI-60 cytotoxicity screen; format: cell-based
SK-MEL-2 = assay: NCI-60 cytotoxicity screen; format: cell-based
SK-MEL-28 = assay: NCI-60 cytotoxicity screen; format: cell-based
SK-MEL-5 = assay: NCI-60 cytotoxicity screen; format: cell-based
UACC-62 = assay: NCI-60 cytotoxicity screen; format: cell-based
NCI/ADR-RES = assay: NCI-60 cytotoxicity screen; format: cell-based
CAKI-1 = assay: NCI-60 cytotoxicity screen; format: cell-based
TK-10 = assay: NCI-60 cytotoxicity screen; format: cell-based
PC-3 = assay: NCI-60 cytotoxicity screen; format: cell-based
HS 578T = assay: NCI-60 cytotoxicity screen; format: cell-based; conditions: Homo sapiens
BT-549 = assay: NCI-60 cytotoxicity screen; format: cell-based
T-47D = assay: NCI-60 cytotoxicity screen; format: cell-based
BSY-1 = assay: JFCR-39 cytotoxicity screen; format: cell-based
U251 = assay: JFCR-39 cytotoxicity screen; format: cell-based
SF-539 [4] = assay: JFCR-39 cytotoxicity screen; format: cell-based
HCC2998 = assay: JFCR-39 cytotoxicity screen; format: cell-based
HCT-116 [5] = assay: JFCR-39 cytotoxicity screen; format: cell-based
NCI-H522 [6] = assay: JFCR-39 cytotoxicity screen; format: cell-based
LOX-IMVI = assay: JFCR-39 cytotoxicity screen; format: cell-based
OVCAR-5 = assay: JFCR-39 cytotoxicity screen; format: cell-based
ST-4 = assay: JFCR-39 cytotoxicity screen; format: cell-based
MKN28 = assay: JFCR-39 cytotoxicity screen; format: cell-based
OVCAR-3 = conditions: JFCR
[7] = test system: normal cardiac myoblast H9c2 cells; conditions: rat
Description: Briefly, 96 well microtiter plates were inoculated with the specified human cancer cell lines in RPMI 1640 medium containing 5% fetal bovine serum and 2 mM L-glutamine at the specified plating densities. The microtiter plates were incubated at 37°C, 5% CO2, and 100% relative humidity for 24 h. The test compounds were solubilized in DMSO at 400-fold the desired final maximum test concentration, diluted with complete medium containing gentamicin and added to the wells of the microtiter plates to achieve the final desired compound concentration, then incubated for an additional 48 h at the same incubation conditions. The media were removed, the cells were fixed then stained with sulforhodamine B and the unbound dye was removed by washing with acetic acid. The bound dye was resolubilized with trizma base and the absorbance at 515 nm was measured. Cells were stained with the WST-1 cell proliferation reagent instead of sulforhodamine B in some experiments and absorbance were measured at 440 nm. The three dose response parameters GI50, TGI and LC50 were calculated for each experimental compound as follows [48]: For values where Ti ≥ Tz the formula is [ (Ti-Tz) / (C-Tz)] x 100 For values where Ti < Tz the formula is [ (Ti-Tz) / Tz] x 100 Where Ti is the absorbance of the solubilized Sulforhodamine B (SRB) (representing the number of cells) of the five different concentrations of the compound used in the test, Tz is the absorbance of the SRB at time zero, and C is the absorbance of the SRB of the control growth.

[8] = Homo sapiens, Fig 7, read-out: mean log10 of the GI50 values (converted)
[9] = Homo sapiens, five-dose, read-out: GI50
[10] = Homo sapiens, five-dose, read-out: LC50 (the source's name)
[11] = Homo sapiens, read-out: LC50 (the source's name)

O=C1c2ccccc2C(=O)c2c1cc(Cl)c1nsnc21 [NSC757963]
GI50 (HL-60(TB); [8]): 1.05 µM | GI50 (HL-60(TB); [9]): 0.42 µM | CC50 (HL-60(TB); [10]): > 100 µM | TGI (HL-60(TB); five-dose): 2.22 µM | GI50 (A549/ATCC; [8]): 91.2 µM | GI50 (A549/ATCC; [9]): > 100 µM | CC50 (A549/ATCC; [10]): > 100 µM | TGI (A549/ATCC; five-dose): >100 µM | GI50 (HOP-92; [8]): 1.45 µM | GI50 (HOP-92; [9]): 1.43 µM | CC50 (HOP-92; [10]): 7.84 µM | TGI (HOP-92; five-dose): 3.34 µM | GI50 (NCI-H460; Homo sapiens, NCI-460, five-dose, read-out: GI50): 30.2 µM | CC50 (NCI-H460; Homo sapiens, NCI-460, five-dose, read-out: LC50 (the source's name)): > 100 µM | GI50 (NCI-H460; Homo sapiens, NCI-H460, Fig 7, read-out: mean log10 of the GI50 values (converted)): 33.1 µM | TGI (NCI-H460; NCI-460, five-dose): >100 µM | GI50 (NCI-H522 [1]; [8]): 1.66 µM | GI50 (NCI-H522 [1]; [9]): 1.6 µM | CC50 (NCI-H522 [1]; [10]): 8.18 µM | TGI (NCI-H522 [1]; five-dose): 3.62 µM | GI50 (HCT-116 [2]; [8]): 2.45 µM | GI50 (HCT-116 [2]; [9]): 3.45 µM | CC50 (HCT-116 [2]; [10]): 35.3 µM | TGI (HCT-116 [2]; five-dose): 11.8 µM | GI50 (SF-539 [3]; [8]): 9.12 µM | GI50 (SF-539 [3]; [9]): 8.23 µM | CC50 (SF-539 [3]; [10]): 50.8 µM | TGI (SF-539 [3]; five-dose): 21.6 µM | GI50 (SNB-19; [8]): 9.55 µM | GI50 (SNB-19; [9]): 13.9 µM | CC50 (SNB-19; [10]): 58.9 µM | TGI (SNB-19; five-dose): 28.6 µM | GI50 (MDA-MB-435; [8]): 1.95 µM | GI50 (MDA-MB-435; [9]): 1.99 µM | CC50 (MDA-MB-435; [10]): 7.49 µM | TGI (MDA-MB-435; five-dose): 3.86 µM | GI50 (SK-MEL-2; [8]): 2.09 µM | GI50 (SK-MEL-2; [9]): 2.21 µM | CC50 (SK-MEL-2; [10]): 37.7 µM | TGI (SK-MEL-2; five-dose): 5.77 µM | GI50 (SK-MEL-28; [8]): 5.37 µM | GI50 (SK-MEL-28; [9]): 9.52 µM | CC50 (SK-MEL-28; [10]): 47 µM | TGI (SK-MEL-28; five-dose): 21.5 µM | GI50 (SK-MEL-5; [8]): 6.92 µM | GI50 (SK-MEL-5; [9]): 8.48 µM | CC50 (SK-MEL-5; [10]): 46.2 µM | TGI (SK-MEL-5; five-dose): 21.0 µM | GI50 (UACC-62; [8]): 3.47 µM | GI50 (UACC-62; [9]): 4.43 µM | CC50 (UACC-62; [10]): 41.8 µM | TGI (UACC-62; five-dose): 17.0 µM | GI50 (NCI/ADR-RES; [8]): 3.09 µM | GI50 (NCI/ADR-RES; [9]): 3.12 µM | CC50 (NCI/ADR-RES; [10]): > 100 µM | TGI (NCI/ADR-RES; five-dose): 18.8 µM | GI50 (CAKI-1; [8]): 7.08 µM | GI50 (CAKI-1; [9]): 12.3 µM | CC50 (CAKI-1; [10]): 58.8 µM | TGI (CAKI-1; five-dose): 26.8 µM | GI50 (TK-10; [8]): 22.9 µM | GI50 (TK-10; [9]): 24.1 µM | CC50 (TK-10; [10]): 64.1 µM | TGI (TK-10; five-dose): 39.3 µM | GI50 (PC-3; [8]): 2.57 µM | GI50 (PC-3; [9]): 2.85 µM | CC50 (PC-3; [10]): > 100 µM | TGI (PC-3; five-dose): 30.2 µM | GI50 (HS 578T; Hs-578T, HS578T, Fig 7, read-out: mean log10 of the GI50 values (converted)): 2.51 µM | GI50 (HS 578T; HS 578T, five-dose, read-out: GI50): 2.38 µM | CC50 (HS 578T; HS 578T, five-dose, read-out: LC50 (the source's name)): > 100 µM | GI50 (BT-549; [8]): 15.8 µM | GI50 (BT-549; [9]): 18.1 µM | CC50 (BT-549; [10]): 58.9 µM | TGI (BT-549; five-dose): 32.7 µM | GI50 (T-47D; Homo sapiens, T47D, Fig 7, read-out: mean log10 of the GI50 values (converted)): 0.912 µM | GI50 (T-47D; Homo sapiens, T47D, five-dose, read-out: GI50): 1.97 µM | CC50 (T-47D; Homo sapiens, T47D, five-dose, read-out: LC50 (the source's name)): > 100 µM | TGI (T-47D; five-dose): 4.56 µM | TGI (BSY-1): 3.2 µM | GI50 (BSY-1; Homo sapiens): 1.7 µM | CC50 (BSY-1; [11]): 6 µM | TGI (U251): 3.9 µM | GI50 (U251; Homo sapiens, U-251): 1.9 µM | CC50 (U251; Homo sapiens, U-251, read-out: LC50 (the source's name)): 8.1 µM | TGI (SF-539 [4]): 3.4 µM | GI50 (SF-539 [4]; Homo sapiens): 1.9 µM | CC50 (SF-539 [4]; [11]): 6.4 µM | TGI (HCC2998): 3.5 µM | GI50 (HCC2998; Homo sapiens, HCC 2998): 1.9 µM | CC50 (HCC2998; Homo sapiens, HCC 2998, read-out: LC50 (the source's name)): 6.4 µM | TGI (HCT-116 [5]): 4.0 µM | GI50 (HCT-116 [5]; Homo sapiens): 1.9 µM | CC50 (HCT-116 [5]; [11]): 8.3 µM | TGI (NCI-H522 [6]): 3.6 µM | GI50 (NCI-H522 [6]; Homo sapiens): 1.8 µM | CC50 (NCI-H522 [6]; [11]): 7.3 µM | TGI (LOX-IMVI): 4.2 µM | GI50 (LOX-IMVI; Homo sapiens): 1.9 µM | CC50 (LOX-IMVI; [11]): 9.3 µM | TGI (OVCAR-5): 3.0 µM | GI50 (OVCAR-5; Homo sapiens): 1.6 µM | CC50 (OVCAR-5; [11]): 5.5 µM | TGI (ST-4): 3.9 µM | GI50 (ST-4; Homo sapiens): 2 µM | CC50 (ST-4; [11]): 7.4 µM | TGI (MKN28): 4.4 µM | GI50 (MKN28; Homo sapiens, MKN-28): 2.2 µM | CC50 (MKN28; Homo sapiens, MKN-28, read-out: LC50 (the source's name)): 8.6 µM | TGI (OVCAR-3): 4.2 µM | cytotoxicity towards normal cardiac myoblast H9c2 cells [7]: significantly less cytotoxic effects on H9c2 cells at higher doses than doxorubicin
